These results are taken from PubChem BioAssay (NCI).

SMILES strings stand for the structures.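 Grown in 96-well plates, cells were treated for 48 hours with each compound at five concentrations. Insufficient inhibition: endpoint recorded as highest concentration tested. GI50: concentration for 50% inhibition of growth. TGI marks complete inhibition of growth.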 A value given as a limit tells only on which side of the number the result lay.

Test systems include MDA-N; HOP-18 NSCLC; DMS 114 small cell lung; LXFL 529 NSCLC; XF 498 CNS; SNB-78 CNS; M19-MEL melanoma; RXF-631 renal; DLD-1 colon.
Holding throughout (assay): NCI anticancer screen, dose series, 48 h

For `CC1=C(/C=C/C(C)=C\C=C\C(C)=C\C(=O)Nc2ccc3c(c2)OCO3)C(C)(C)CCC1`, in the assay on MDA-N, the GI50 was 55.7 µM and the TGI is above 100 µM.
In turn, `O=C(O)C(=Cc1ccnc2ccccc12)C(=O)O` showed a TGI in the assay with MDA-N above 100 µM.
Same read-out and setting: the value for `N#CC(=S)Nc1cccc(Cl)c1` was above 100 µM.
For `COC(=O)C(CCS(=O)(=O)CC(=O)C(=O)Nc1cccc(C(C)=O)c1)C(=O)OC`, the TGI was above 100 µM in the assay on HOP-18 NSCLC; above 55.2 µM in the assay on DMS 114 small cell lung; above 100 µM in the assay on LXFL 529 NSCLC; above 100 µM with XF 498 CNS; above 100 µM in the assay on SNB-78 CNS; above 100 µM with M19-MEL melanoma. Also, the TGI in the assay on RXF-631 renal and in the assay on DLD-1 colon was above 100 µM each time.
With `O=C1NC(=S)NC(=O)C1=Cc1cc2c(cc1[N+](=O)[O-])OCO2`, the TGI with HOP-18 NSCLC was above 100 µM; in the assay on DMS 114 small cell lung, 87.3 µM; in the assay with SNB-78 CNS, above 100 µM; with M19-MEL melanoma it was above 100 µM; in the assay on RXF-631 renal, above 100 µM; with DLD-1 colon, above 100 µM.
Take `CCCN(CCCCC(NC(C)=O)C(=O)NCc1ccccc1)C(=O)NCCCl` (configuration not stated): the TGI in the assay on HOP-18 NSCLC, with DMS 114 small cell lung, with LXFL 529 NSCLC, in the assay on XF 498 CNS, in the assay on M19-MEL melanoma and in the assay with RXF-631 renal was above 100 µM each time. Moreover, the TGI in the assay with DLD-1 colon is above 100 µM.
In turn, `Cc1c(N=Nc2ccc([N+](=O)[O-])cc2)nc2scc(-c3ccccc3)n12` came in with a TGI in the assay on MDA-N above 100 µM.
On the same count and under the same terms, with `O=c1cc(C(F)(F)F)c2cc3c(cc2o1)NCCC3` the figure was above 100 µM; with `CCCC[C@H]1C(=O)O[C@H](C)[C@H](NC(=O)c2cccc(NC=O)c2O)C(=O)O[C@@H](C)[C@@H]1OC(=O)CC(C)C`, 51.9 µM.
As to `O=C(/C=C/c1ccc(OCC(=O)N2CCN(c3ccccc3)CC2)cc1)c1ccc(Cl)cc1`, the TGI in the assay on HOP-18 NSCLC is above 100 µM; in the assay with DMS 114 small cell lung, above 100 µM; in the assay with LXFL 529 NSCLC, above 100 µM; in the assay with MDA-N, above 100 µM; with SNB-78 CNS it was 82.8 µM; with M19-MEL melanoma it was above 100 µM. Further, the TGI in the assay with RXF-631 renal and in the assay with DLD-1 colon was above 100 µM throughout.
On to `CCCCCCCCCCC/C(=N/O)c1ccc(O)c2ncccc12`, for which the TGI with HOP-18 NSCLC was 9.59 µM; in the assay on DMS 114 small cell lung it was 6.79 µM; with LXFL 529 NSCLC, 7.57 µM; in the assay on SNB-78 CNS it was above 100 µM; in the assay with M19-MEL melanoma, 4.97 µM; with DLD-1 colon it was 8.91 µM.
As for `N#CC(C(=O)/C(=N/N)C(C#N)c1ccc(Cl)cc1)c1ccc(Cl)cc1` (configuration not stated), the TGI in the assay on HOP-18 NSCLC, with DMS 114 small cell lung, in the assay on LXFL 529 NSCLC, in the assay with XF 498 CNS, in the assay on SNB-78 CNS and in the assay on M19-MEL melanoma was above 100 µM throughout. The TGI in the assay on RXF-631 renal and in the assay on DLD-1 colon was above 100 µM in each case.
On to `CC(C)N(C(=O)C12C3C4C5(C#N)C3C1(I)C5C42I)C(C)C` (configuration not stated), for which the TGI in the assay with HOP-18 NSCLC is above 100 µM; in the assay on DMS 114 small cell lung it was above 59.7 µM; in the assay with LXFL 529 NSCLC it was above 100 µM; in the assay with XF 498 CNS, above 100 µM; with SNB-78 CNS, above 100 µM; with M19-MEL melanoma, above 100 µM. This molecule came in with a TGI with DLD-1 colon above 100 µM.
In the case of `Cc1ccccc1-c1c(N)nc(NC#N)nc1C(=O)Nc1ccccc1`, the TGI with HOP-18 NSCLC, with DMS 114 small cell lung, in the assay with LXFL 529 NSCLC, in the assay on SNB-78 CNS, in the assay on M19-MEL melanoma and in the assay with RXF-631 renal was above 100 µM in each case. The same molecule gave a TGI with DLD-1 colon above 100 µM.
For the molecule `Cc1cccc(C(C)(C)C)c1NC(=O)C(=O)C(C(=O)/C=C\c1ccccc1)C1OC(=O)c2ccccc21` (configuration not stated), the TGI with HOP-18 NSCLC, in the assay on DMS 114 small cell lung, with LXFL 529 NSCLC, in the assay on XF 498 CNS, in the assay on SNB-78 CNS and in the assay on M19-MEL melanoma was above 100 µM in each case. Further, the TGI with RXF-631 renal and with DLD-1 colon was above 100 µM in each case.
On to `CCOc1ccc(N=Cc2cccc3cccnc23)cc1`, for which the TGI in the assay with HOP-18 NSCLC, with DMS 114 small cell lung, in the assay with LXFL 529 NSCLC, in the assay on XF 498 CNS, in the assay on SNB-78 CNS and in the assay with M19-MEL melanoma was above 100 µM each time. Further, the TGI with RXF-631 renal and in the assay with DLD-1 colon was above 100 µM each time.
On to `CC(O)/C=C/C(CCC(C)CO)C(C)C` (configuration not stated), for which the TGI in the assay on DMS 114 small cell lung, in the assay with LXFL 529 NSCLC, with XF 498 CNS, in the assay on SNB-78 CNS, in the assay with M19-MEL melanoma and in the assay with RXF-631 renal was above 100 µM throughout. The molecule also showed a TGI in the assay on DLD-1 colon above 100 µM.
As for `O=C1C=C[C@@]23CC1C(O)C[C@H]2C=Cc1ccccc13` (some centres not stated), the TGI with DMS 114 small cell lung, with LXFL 529 NSCLC, with XF 498 CNS, with M19-MEL melanoma and in the assay on DLD-1 colon was above 100 µM each time.
For `CCCC1c2c(ccc3ccccc23)Oc2ccc3ccccc3c21`, the TGI in the assay with MDA-N is above 100 µM.
The same measure, in the same setting: the value for `C/C(=N/S(=O)(=O)c1ccc(Cl)c(Cl)c1)OCC(C)(C)C` was above 100 µM.
Consider `CCCCCCCCCCCCCCCCCC(=O)OCC(CN(C)CCN(C)C)OC(=O)CCCCCCCCCCCCCCCCC` (configuration not stated), for which the TGI with HOP-18 NSCLC was 89 µM; in the assay with DMS 114 small cell lung it was above 100 µM; in the assay with LXFL 529 NSCLC, above 100 µM; in the assay with SNB-78 CNS it was above 100 µM; in the assay with RXF-631 renal, above 100 µM; in the assay on DLD-1 colon it was above 100 µM.
With `CSc1nc(NC2OCC(OC(C)=O)C(OC(C)=O)C2OC(C)=O)c2c(OC(C)=O)c(C)c(=O)oc2n1` (configuration not stated), the TGI in the assay on HOP-18 NSCLC, in the assay with DMS 114 small cell lung, in the assay on LXFL 529 NSCLC, with XF 498 CNS, with SNB-78 CNS and in the assay with M19-MEL melanoma was above 100 µM in each case. Further, the TGI with RXF-631 renal and with DLD-1 colon was above 100 µM each time.
With `Cc1c(/C=N/NS(=O)(=O)c2ccccc2)no[n+]1[O-]`, the TGI in the assay on HOP-18 NSCLC, in the assay with DMS 114 small cell lung and with LXFL 529 NSCLC was above 100 µM in each case.
In the assay with MDA-N, `COc1cc2oc(=O)ccc2cc1C1OC(=O)C2OC21C` (configuration not stated) yielded a TGI above 100 µM.
